This is an account of results in ChEMBL document CHEMBL4393730, “Thiazolidinedione and thiazole derivatives potentiate norfloxacin activity against NorA efflux pump over expression in Staphylococcus aureus 1199B strains” (Bioorg Med Chem, 2019).

The target of data set [1] is T1, Quinolone resistance protein NorA (Staphylococcus aureus) (UniProt P0A0J7).
T1 sequence (whole entry): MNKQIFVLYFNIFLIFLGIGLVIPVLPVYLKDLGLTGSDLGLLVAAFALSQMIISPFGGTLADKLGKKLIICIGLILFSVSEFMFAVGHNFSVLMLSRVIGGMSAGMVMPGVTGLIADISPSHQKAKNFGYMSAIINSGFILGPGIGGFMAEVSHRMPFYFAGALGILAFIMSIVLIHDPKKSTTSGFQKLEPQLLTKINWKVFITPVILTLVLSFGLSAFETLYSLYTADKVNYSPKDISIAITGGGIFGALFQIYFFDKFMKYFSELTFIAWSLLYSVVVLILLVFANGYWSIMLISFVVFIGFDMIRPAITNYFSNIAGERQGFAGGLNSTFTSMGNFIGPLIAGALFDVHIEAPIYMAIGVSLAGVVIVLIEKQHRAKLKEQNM
The data set can be described thus: Inhibition of NorA efflux pump in multidrug resistant Staphylococcus aureus 1199B mutant assessed as reduction in norfloxacin MIC measured after 24 hrs by broth microdilution method relative to norfloxacin. In general terms: In broth dilution the organism is exposed to a series of concentrations in liquid medium.

The subject of data set [2] is Staphylococcus aureus. The data set can be described thus: Antibacterial activity against wild type Staphylococcus aureus 1199 devoid of NorA efflux pump measured after 24 hrs by broth microdilution method. The class given is functional. The following applies: Staphylococcus aureus, 1199, 24 h.
Data set [3] relates to Staphylococcus aureus. The data set can be described thus: Antibacterial activity against wild type Staphylococcus aureus 1199 devoid of norA efflux pump assessed as norfloxacin MIC measured after 24 hrs by broth microdilution method (reference value: 64 +/- 1 microg/ml). The format is functional. The following applies: Staphylococcus aureus, 1199, 24 h.
Data set [4] can be described thus: Cytotoxicity against mouse L929 cells assessed as cell growth inhibition at 50 ug/ml measured after 72 hrs by MTT method relative to control. The format is cell-based. The settings on record: read-out: GI. Background: Tetrazolium dyes change colour on reduction, which living cells bring about.
Data set [5] relates to Staphylococcus aureus. The data set can be described thus: Antibacterial activity against multidrug resistant Staphylococcus aureus 1199B mutant strain carrying NorA efflux pump assessed as growth inhibition measured after 24 hrs by broth microdilution method. The class given is functional.
For data set [6], the target named is T1, Quinolone resistance protein NorA (Staphylococcus aureus). The data set can be described thus: Inhibition of NorA efflux pump in multidrug resistant Staphylococcus aureus 1199B mutant assessed as norfloxacin MIC measured after 24 hrs by broth microdilution method (reference value: 256 +/- 1 microg/ml).
Data set [7] relates to Staphylococcus aureus. The data set can be described thus: Antibacterial activity against wild type Staphylococcus aureus 1199 devoid of norA efflux pump assessed as reduction in norfloxacin MIC measured after 24 hrs by broth microdilution method relative to norfloxacin. The class given is functional.

Turning to `COc1ccc(Br)cc1/C=N/Nc1nc(-c2ccccc2)cs1`, the fold change (FC) in data set [1] and in data set [7] was 3 throughout. For the same compound, the MIC was more than 1020 µg/mL in data set [2], 0.5 µg/mL in data set [3], more than 1020 µg/mL in data set [5] and 50.8 µg/mL in data set [6]. In addition, the inhibition at 72 h, 50 ug/ml in data set [4] is 24.4%.
As for `COc1ccc(Br)cc1/C=N/Nc1nc(-c2ccc(-c3ccccc3)cc2)cs1`, the MIC in data set [2] was more than 1020 µg/mL; in data set [3], 1020 µg/mL; in data set [5], more than 1020 µg/mL; in data set [6], 1020 µg/mL. Further, the inhibition at 72 h, 50 ug/ml in data set [4] worked out at 15%.
As to `COc1ccc(Br)cc1/C=N/Nc1nc(-c2ccc(Br)cc2)cs1`, the fold change (FC) in data set [1] and in data set [7] was 3 throughout. The MIC in data set [2] was more than 1020 µg/mL; in data set [3], 16 µg/mL; in data set [5], more than 1020 µg/mL; in data set [6], 64 µg/mL. Also, in data set [4], the inhibition at 72 h, 50 ug/ml came to 17.3%.
As for `COc1ccc(Br)cc1/C=N/Nc1nc(-c2ccc([N+](=O)[O-])cc2)cs1`, the MIC in data set [2] was more than 1020 µg/mL; in data set [3], 5 µg/mL; in data set [5], more than 1020 µg/mL; in data set [6], 128 µg/mL. The inhibition at 72 h, 50 ug/ml in data set [4] worked out at 39.9%.
With `COc1ccc(Br)cc1/C=N/Nc1nc(-c2ccc(Cl)cc2)cs1`, the fold change (FC) in data set [1] and in data set [7] was 3 throughout. Further, the MIC is more than 1020 µg/mL in data set [2], 0.63 µg/mL in data set [3], more than 1020 µg/mL in data set [5] and 40.3 µg/mL in data set [6]. Also, the inhibition at 72 h, 50 ug/ml in data set [4] came to 30.1%.
Turning to `COc1ccc(Br)cc1/C=N/Nc1nc(-c2ccc(F)cc2)cs1`, the MIC in data set [2] is more than 1020 µg/mL; in data set [3] it was 1020 µg/mL; in data set [5] it was more than 1020 µg/mL; in data set [6], 1020 µg/mL. Besides, the inhibition at 72 h, 50 ug/ml in data set [4] stood at 31.2%.
